According to US20100087499A1, “PHARMACEUTICAL COMPOSITIONS AND METHODS OF USING TEMOZOLOMIDE AND MULTI-TARGETED KINASE INHIBITORS” (SCHERING CORPORATION, priority 2007, published 2010):

System: U87MG glioblastoma xenograft
Assay: U87MG glioblastoma xenograft tumor growth in nude mice
Type: in vivo
Method: The following human glioblastoma xenograft model may be employed to ascertain the efficacy of the formulations and methods described herein. Human glioblastoma cell U87MG are inoculated subcutaneously into female nude mice (age 4-6 wks). Xenograft tumor growth is followed by measuring the tumor size using a caliper. Once tumor size reaches about 100 mm^3 (average), mice carrying the xenograft tumors are grouped and treated with different doses of the combination of TMZ and a multi-targeted kinase inhibitor. Likewise, human glioblastoma cell U373 may be used to establish a xenograft model.
The combination of TMZ and a multi-targeted kinase inhibitor (e.g., sunitinib) for treating a cell proliferative disorder was examined using a human glioblastoma xenograft model. In particular, the glioblastoma model U87MG was used to evaluate the efficacy of multi-targeted kinase inhibitor sunitinib as a single agent compared to TMZ (Temozolomide, Temodar®), a chemotherapeutic drug clinically approved for treating brain tumor, as a single agent. In addition, this study looked at the efficacy of the combination of TMZ with sunitinib in comparison to the efficacy with either agent alone.
In brief, nude mice were inoculated with U87-MG glioblastoma cells and the resultant tumors treated with control, or various concentrations of TMZ, sunitinib, or a combination of both TMZ and sunitinib. More specifically, female nude mice (strain NU/NU), aged 6-8 weeks old were purchased from Charles River Laboratory. Five million glioblastoma U87-MG were mixed 1:1 (volume:volume) with Matrigel (Cat. # 354234, BD Biosciences) on ice and mixtures were inoculated subcutaneously to the flank of each mouse. Dosing was initiated on day 8 after inoculation when the tumor size was approximately 100 mm^3. TMZ was administered qd, ip for five consecutive days. Sunitinib was administered qd, po for 9-12 days consecutive days (until the end of the studies). The dosing volume was approximately 0.1 ml. Tumor size and body weight was measured two to three times per week.
There were 10 nude mice per dosing regimen.

Compound	inhibition of tumor growth (Day 17 post inoculation (day 9 post dosing initiation), TMZ alone 20 mpk qd ip x5 days, Table 1 / FIG. 2) [%]	inhibition of tumor growth (Day 17 post inoculation, TMZ alone 30 mpk (so in the source) qd ip x5 days, Table 1 / FIG. 2) [%]	inhibition of tumor growth (Day 17 post inoculation, TMZ alone 40 mpk (so in the source) qd ip x5 days, Table 1 / FIG. 2) [%]	inhibition of tumor growth (Day 20 post inoculation (day 12 post dosing initiation), TMZ alone 5 mpk qd ip x5 days, Table 2 / FIG. 4) [%]	inhibition of tumor growth (Day 20 post inoculation, TMZ alone 20 mpk qd ip x5 days, Table 2 / FIG. 4) [%]	inhibition of tumor growth (Day 17 post inoculation, sunitinib alone 40 mpk qd po, Table 1 / FIG. 2) [%]	inhibition of tumor growth (Day 17 post inoculation, sunitinib alone 80 mpk qd po, Table 1 / FIG. 2) [%]	inhibition of tumor growth (Day 20 post inoculation, sunitinib alone 40 mpk qd po, Table 2 / FIG. 4) [%]	inhibition of tumor growth (Day 20 post inoculation, sunitinib alone 80 mpk qd po, Table 2 / FIG. 4) [%]
Cn1nnc2c(C(N)=O)ncn2c1=O [TMZ, 3,4-dihydro-3-methyl-4-oxoimidazo[5,1-d]-as-tetazine-8-carboxamide]	96	96	98	95	102	–	–	–	–
CCN(CC)CCNC(=O)c1c(C)[nH]c(/C=C2\C(=O)Nc3ccc(F)cc32)c1C [sunitinib]	–	–	–	–	–	56	82	76	83
